Drawing on patent publication US9611277B2 (Janssen Pharmaceutica NV, priority 2013, dated 2017), this text covers Ki for 16 compounds.

For one assay, the target named is rat orexin 1 receptor (Rattus norvegicus, UniProt P56718). Briefly: Rat orexin 1 receptor radioligand binding. The conditions noted are these: rat orexin 1 receptor; averages of 2-20 runs; read-out: rOX1 Ki. A digest of the protocol: (§1)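 Competition binding with the tritiated thiazolyl-pyrrolidinyl-methanone radioligand in PBS on homogenized rat or human OX1R-expressing cell suspensions, ≤0.1% DMSO; nonspecific binding defined with 10 μM almorexant. Bound radioactivity read by scintillation after filtration; IC50 from one-site competition fit, converted to Ki using pre-determined radioligand Kd.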

The next assay has as its target human orexin 1 receptor (Homo sapiens, UniProt O43613). Description: Human orexin 1 receptor radioligand binding. Particulars: human orexin 1 receptor; averages of 2-20 runs; read-out: hOX1 Ki. The method in brief: as §1
Another assay concerns the target human orexin 2 receptor (Homo sapiens (Human), UniProt O43614). Briefly: Human orexin 2 receptor radioligand binding. The conditions noted are these: human orexin 2 receptor; averages of 2-20 runs; read-out: hOX2 Ki. The method in brief:
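HEK293 cells stably expressing human OX2 receptor, homogenized, incubated with [3H]-EMPA and compounds (DMSO ≤0.1%); nonspecific binding with 10 μM almorexant. Filter-bound radioactivity counted by scintillation; IC50 from one-site competition fit of triplicates, Ki from IC50 and predetermined radioligand Kd, averaged over 2-20 runs.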

pKi: −log10 of the molar value.

Sequence of human orexin 2 receptor (O43614 whole entry): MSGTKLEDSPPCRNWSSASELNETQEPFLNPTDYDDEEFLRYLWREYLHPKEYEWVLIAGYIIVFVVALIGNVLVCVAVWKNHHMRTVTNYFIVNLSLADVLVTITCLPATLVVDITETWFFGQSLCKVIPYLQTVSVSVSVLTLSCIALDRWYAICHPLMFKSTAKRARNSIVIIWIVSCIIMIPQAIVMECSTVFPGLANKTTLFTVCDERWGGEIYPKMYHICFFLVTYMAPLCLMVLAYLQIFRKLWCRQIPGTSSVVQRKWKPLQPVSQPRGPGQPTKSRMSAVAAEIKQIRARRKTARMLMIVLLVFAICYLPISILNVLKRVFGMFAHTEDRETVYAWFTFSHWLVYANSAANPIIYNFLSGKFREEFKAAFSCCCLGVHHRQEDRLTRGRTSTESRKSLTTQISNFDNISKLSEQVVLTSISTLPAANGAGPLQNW

For `O=C(c1cccc(F)c1-c1ncccn1)N1C[C@H]2C[C@@H](Oc3cccc(C(F)(F)F)n3)[C@@H]1C2` [Example 94, (3-fluoro-2-(pyrimidin-2-yl)phenyl)((1S,4R,6R)-6-((6-(trifluoromethyl)pyridin-2-yl)oxy)-2-azabicyclo[2.2.1]heptan-2-yl)methanone], the pKi at rat orexin 1 receptor is 7.46; on human orexin 1 receptor, 7.52; on human orexin 2 receptor, 6.07.

Regarding `O=C(c1cccc(F)c1-c1ncccn1)N1C[C@H]2C[C@@H](Nc3ccc(C(F)F)cn3)[C@@H]1C2` [Example 174, ((1S,4S,6R)-6-((5-(difluoromethyl)pyridin-2-yl)amino)-2-azabicyclo[2.2.1]heptan-2-yl)(3-fluoro-2-(pyrimidin-2-yl)phenyl)methanone], the results for the negative-log Ki (pKi) at rat orexin 1 receptor, on human orexin 1 receptor and on human orexin 2 receptor were 7.74, 7.82 and 6.64, respectively.

Consider `O=C(c1ccccc1-n1nccn1)N1C[C@H]2C[C@@H](Oc3ccc(C(F)F)cn3)[C@@H]1C2` [Example 121, (2-(2H-1,2,3-triazol-2-yl)phenyl)((1S,4R,6R)-6-((5-(difluoromethyl)pyridin-2-yl)oxy)-2-azabicyclo[2.2.1]heptan-2-yl)methanone], for which the figures for the pKi at rat orexin 1 receptor, at human orexin 1 receptor and at human orexin 2 receptor were 8.00, 7.96 and 7.30, respectively.

With `O=C(c1ccccc1-c1ncc(F)cn1)N1C[C@H]2C[C@@H](Nc3ncc(C(F)(F)F)cn3)[C@@H]1C2` [Example 231, (2-(5-fluoropyrimidin-2-yl)phenyl)((1S,4S,6R)-6-((5-(trifluoromethyl)pyrimidin-2-yl)amino)-2-azabicyclo[2.2.1]heptan-2-yl)methanone], the pKi is 8.05 on rat orexin 1 receptor, 7.92 at human orexin 1 receptor and 5.89 on human orexin 2 receptor.

As for `Cc1noc(-c2cc(F)ccc2C(=O)N2C[C@H]3C[C@@H](Nc4ccc(C(F)(F)F)cn4)[C@@H]2C3)n1` [Example 152, (4-fluoro-2-(3-methyl-1,2,4-oxadiazol-5-yl)phenyl)((1S,4S,6R)-6-((5-(trifluoromethyl)pyridin-2-yl)amino)-2-azabicyclo[2.2.1]heptan-2-yl)methanone], the pKi is 7.52 at rat orexin 1 receptor, 7.80 on human orexin 1 receptor and 5.80 on human orexin 2 receptor.

Turning to `CN(c1ccc(C(F)(F)F)cn1)[C@@H]1C[C@H]2C[C@@H]1N(C(=O)c1ccccc1-n1nccn1)C2` [Example 153, (2-(2H-1,2,3-triazol-2-yl)phenyl)((1S,4S,6R)-6-(methyl(5-(trifluoromethyl)pyridin-2-yl)amino)-2-azabicyclo[2.2.1]heptan-2-yl)methanone], the pKi is 8.52 at rat orexin 1 receptor, 8.52 on human orexin 1 receptor and 6.47 at human orexin 2 receptor.

As to `Cc1ccc(O[C@@H]2C[C@H]3C[C@@H]2N(C(=O)c2cccc(F)c2-c2ncccn2)C3)nc1` [Example 101, (3-fluoro-2-(pyrimidin-2-yl)phenyl)((1S,4R,6R)-6-((5-methylpyridin-2-yl)oxy)-2-azabicyclo[2.2.1]heptan-2-yl)methanone], the pKi is 7.59 on rat orexin 1 receptor, 7.96 on human orexin 1 receptor and 6.15 at human orexin 2 receptor.

Regarding `O=C(c1c(F)cccc1-n1nccn1)N1C[C@H]2C[C@@H](Nc3ncc(C(F)(F)F)cn3)[C@@H]1C2` [Example 226, (2-fluoro-6-(2H-1,2,3-triazol-2-yl)phenyl)((1S,4S,6R)-6-((5-(trifluoromethyl)pyrimidin-2-yl)amino)-2-azabicyclo[2.2.1]heptan-2-yl)methanone], the pKi on rat orexin 1 receptor was 7.77; at human orexin 1 receptor it was 7.72; at human orexin 2 receptor, 6.06.

Take `O=C(c1cccc2cc[nH]c12)N1C[C@H]2C[C@@H](Nc3ccc(C(F)(F)F)cn3)[C@@H]1C2` [Example 185, (1H-indol-7-yl)((1S,4S,6R)-6-((5-(trifluoromethyl)pyridin-2-yl)amino)-2-azabicyclo[2.2.1]heptan-2-yl)methanone]: the negative logarithm of the Ki (pKi) on rat orexin 1 receptor is 7.57; at human orexin 1 receptor, 7.48; on human orexin 2 receptor, 6.84.

For the compound `O=C(c1ccccc1-n1nccn1)N1C[C@H]2C[C@@H](Oc3ccc(C(F)(F)F)nn3)[C@@H]1C2` [Example 139, (2-(2H-1,2,3-triazol-2-yl)phenyl)((1S,4R,6R)-6-((6-(trifluoromethyl)pyridazin-3-yl)oxy)-2-azabicyclo[2.2.1]heptan-2-yl)methanone], the figures for the pKi at rat orexin 1 receptor, at human orexin 1 receptor and at human orexin 2 receptor were 6.68, 6.82 and 5.43, respectively.

Regarding `COCCN(c1ccc(C(F)(F)F)cn1)[C@@H]1C[C@H]2C[C@@H]1N(C(=O)c1cccc(F)c1-c1ncccn1)C2` [Example 163, (3-fluoro-2-(pyrimidin-2-yl)phenyl)((1S,4S,6R)-6-((2-methoxyethyl)(5-(trifluoromethyl)pyridin-2-yl)amino)-2-azabicyclo[2.2.1]heptan-2-yl)methanone], the pKi is 7.72 on rat orexin 1 receptor, 7.92 on human orexin 1 receptor and 6.02 on human orexin 2 receptor.

Take `O=C(c1nccnc1-c1ccccc1)N1C[C@H]2C[C@@H](Oc3ccc(C(F)(F)F)cn3)[C@@H]1C2` [Example 93, (3-phenylpyrazin-2-yl)((1S,4R,6R)-6-((5-(trifluoromethyl)pyridin-2-yl)oxy)-2-azabicyclo[2.2.1]heptan-2-yl)methanone]: the pKi on rat orexin 1 receptor was 6.90; at human orexin 1 receptor it was 7.12; on human orexin 2 receptor, 5.51.

Regarding `O=C(c1ccccc1-c1ccccc1)N1C[C@H]2C[C@@H](Nc3cnc(C(F)(F)F)cn3)[C@@H]1C2` [Example 206, [1,1′-biphenyl]-2-yl((1S,4S,6R)-6-((5-(trifluoromethyl)pyrazin-2-yl)amino)-2-azabicyclo[2.2.1]heptan-2-yl)methanone], the values for the pKi on rat orexin 1 receptor, on human orexin 1 receptor and at human orexin 2 receptor were 8.10, 8.00 and 6.99, respectively.

Consider `O=C(c1cccc(F)c1-c1ncccn1)N1C[C@H]2C[C@@H](N(CC3CC3)c3ccc(C(F)(F)F)cn3)[C@@H]1C2` [Example 161, ((1S,4S,6R)-6-((cyclopropylmethyl)(5-(trifluoromethyl)pyridin-2-yl)amino)-2-azabicyclo[2.2.1]heptan-2-yl)(3-fluoro-2-(pyrimidin-2-yl)phenyl)methanone], for which the results for the pKi on rat orexin 1 receptor, at human orexin 1 receptor and on human orexin 2 receptor were 7.85, 8.30 and 6.42, respectively.

As to `CN(c1ccc(C(F)(F)F)cn1)[C@@H]1C[C@H]2C[C@@H]1N(C(=O)c1cccc(F)c1-n1nccn1)C2` [Example 154, (3-fluoro-2-(2H-1,2,3-triazol-2-yl)phenyl)((1S,4S,6R)-6-(methyl(5-(trifluoromethyl)pyridin-2-yl)amino)-2-azabicyclo[2.2.1]heptan-2-yl)methanone], the pKi at rat orexin 1 receptor was 8.40; at human orexin 1 receptor it was 8.22; on human orexin 2 receptor, 6.48.

Regarding `O=C(c1ccccc1-n1nccn1)N1C[C@H]2C[C@@H](Nc3ccc(Cl)cn3)[C@@H]1C2` [Example 169, (2-(2H-1,2,3-triazol-2-yl)phenyl)((1S,4S,6R)-6-((5-chloropyridin-2-yl)amino)-2-azabicyclo[2.2.1]heptan-2-yl)methanone], the pKi is 8.52 at rat orexin 1 receptor, 8.40 at human orexin 1 receptor and 6.55 at human orexin 2 receptor.
